One may read the IC50 as the concentration needed to halve the response being measured. Higher therefore signals weaker potency.

Molecules are shown by their SMILES.

In this assay the target is PD-1/PD-L1 (Homo sapiens (Human), UniProt Q9NZQ7). Nature of the assay: PD-1/PD-L1 Homogenous Time-Resolved Fluorescence (HTRF) binding assay. Conditions: PD-1-Ig (20 nM final)/PD-L1-His (10 nM final) binding assay. The procedure, abridged: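 Compounds pre-incubated 15 min with human PD-L1(18-239)-His (10 nM final), then 15 min with PD-1(25-167)-Ig (20 nM final), in dPBS with 0.1% BSA and 0.05% Tween-20. Detection with Eu-cryptate anti-Ig (1 nM) and APC anti-His (20 nM) after 30 min equilibration; 665/620 nm ratio read.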
PD-1/PD-L1, sequence (Q9NZQ7 18-239): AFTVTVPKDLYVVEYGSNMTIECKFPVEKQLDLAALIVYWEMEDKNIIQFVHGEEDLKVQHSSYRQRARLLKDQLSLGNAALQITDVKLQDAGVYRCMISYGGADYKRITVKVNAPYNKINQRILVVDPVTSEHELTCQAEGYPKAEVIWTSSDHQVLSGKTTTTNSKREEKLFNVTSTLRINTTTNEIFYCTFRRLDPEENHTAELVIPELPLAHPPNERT
For orientation: Time-resolved FRET reads energy transfer from a long-lived donor to a nearby acceptor.
The compound `Cc1c(COc2cc(OC[C@H](C)CO)c(CN3CCCC[C@H]3C(=O)O)cc2Cl)cccc1-c1ccc2c(c1)OCCO2` [Example 1031, (S)-1-(5-Chloro-4-((3-(2,3-dihydrobenzo[b][1,4]dioxin-6-yl)-2-methylbenzyl)oxy)-2-((R)-3-hydroxy-2-methylpropoxy)benzyl)piperidine-2-carboxylic acid] showed an IC50 of 14.7 nM.
The value for `Cc1c(COc2cc(OCc3cncc(SCCC(=O)O)c3)c(CN[C@@](C)(CO)C(=O)O)cc2Cl)cccc1-c1ccc2c(c1)OCCO2` [Example 1014, (S)-2-((2-((5-((2-Carboxyethyl)thio)pyridin-3-yl)methoxy)-5-chloro-4-((3-(2,3-dihydrobenzo[b][1,4]dioxin-6-yl)-2-methylbenzyl)oxy)benzyl)amino)-3-hydroxy-2-methylpropanoic acid] was 6.6 nM; that for `Cc1c(COc2cc(OCCN3CCOCC3)c(CN[C@](C)(CO)C(=O)O)cc2Cl)cccc1-c1ccc2c(c1)OCCO2` [Example 1037, (R)-2-((5-Chloro-4-((3-(2,3-dihydrobenzo[b][1,4]dioxin-6-yl)-2-methylbenzyl)oxy)-2-(2-morpholinoethoxy)benzyl)amino)-3-hydroxy-2-methylpropanoic acid] was 1.8 nM.
The value for `Cc1c(COc2cc(OCC3CCOCC3)c(CN[C@](C)(CO)C(=O)O)cc2Cl)cccc1-c1ccc2c(c1)OCCO2` [Example 1045, (R)-2-((5-Chloro-4-((3-(2,3-dihydrobenzo[b][1,4]dioxin-6-yl)-2-methylbenzyl)oxy)-2-((tetrahydro-2H-pyran-4-yl)methoxy)benzyl)amino)-3-hydroxy-2-methylpropanoic acid] was 4.4 nM; that for `Cc1cnc(COc2cc(OCc3cccc(-c4ccc5c(c4)OCCO5)c3C)c(Cl)cc2CN[C@@](C)(CO)C(=O)O)cn1` [Example 1002, (S)-2-((5-Chloro-4-((3-(2,3-dihydrobenzo[b][1,4]dioxin-6-yl)-2-methylbenzyl)oxy)-2-((5-methylpyrazin-2-yl)methoxy)benzyl)amino)-3-hydroxy-2-methylpropanoic acid] was 6.8 nM.
The value for `Cc1c(COc2cc(OCCN3CCS(=O)(=O)CC3)c(CN3CCCC[C@H]3C(=O)O)cc2Cl)cccc1-c1ccc2c(c1)OCCO2` [Example 1060, (S)-1-(5-chloro-4-((3-(2,3-dihydrobenzo[b][1,4]dioxin-6-yl)-2-methylbenzyl)oxy)-2-(2-(1,1-dioxidothiomorpholino)ethoxy)benzyl)piperidine-2-carboxylic acid] was 9.2 nM.
`COC(=O)CCSc1cncc(COc2cc(OCc3cccc(-c4ccc5c(c4)OCCO5)c3C)c(Cl)cc2CN[C@@](C)(CO)C(=O)O)c1` [Example 1006, (S)-2-((5-Chloro-4-((3-(2,3-dihydrobenzo[b][1,4]dioxin-6-yl)-2-methylbenzyl)oxy)-2-((5-((3-methoxy-3-oxopropyl)thio)pyridin-3-yl)methoxy)benzyl)amino)-3-hydroxy-2-methylpropanoic acid] returned an IC50 of 1.1 nM.
On to `Cc1c(COc2cc(OCc3cnn(-c4ccccn4)c3)c(CN[C@@](C)(CO)C(=O)O)cc2Cl)cccc1-c1ccc2c(c1)OCCO2` [Example 1011, (S)-2-((5-Chloro-4-((3-(2,3-dihydrobenzo[b][1,4]dioxin-6-yl)-2-methylbenzyl)oxy)-2-((1-(pyridin-2-yl)-1H-pyrazol-4-yl)methoxy)benzyl)amino)-3-hydroxy-2-methylpropanoic acid], for which the IC50 was determined as 11 nM.
The value for `Cc1c(COc2cc(OCc3cncc(C(=O)N[C@@H](CO)C(=O)O)c3)c(CN3CC[C@H](O)C3)cc2Cl)cccc1-c1ccc2c(c1)OCCO2` [Example 2009, (S)-2-(5-((4-chloro-5-((3-(2,3-dihydrobenzo[b][1,4]dioxin-6-yl)-2-methylbenzyl)oxy)-2-(((S)-3-hydroxypyrrolidin-1-yl)methyl)phenoxy)methyl)nicotinamido)-3-hydroxypropanoic acid] was 4.6 nM; that for `Cc1c(COc2cc(OCc3cnn(CC#N)c3)c(CN[C@@](C)(CO)C(=O)O)cc2Cl)cccc1-c1ccc2c(c1)OCCO2` [Example 1008, (S)-2-((5-chloro-2-((1-(cyanomethyl)-1H-pyrazol-4-yl)methoxy)-4-((3-(2,3-dihydrobenzo[b][1,4]dioxin-6-yl)-2-methylbenzyl)oxy)benzyl)amino)-3-hydroxy-2-methylpropanoic acid] was 1.7 nM; that for `Cc1c(COc2cc(OCCN3CCC(O)(C(=O)O)CC3)c(CNC(C)(CO)CO)cc2Cl)cccc1-c1ccc2c(c1)OCCO2` [Example 1056, 1-(2-(4-Chloro-5-((3-(2,3-dihydrobenzo[b][1,4]dioxin-6-yl)-2-methylbenzyl)oxy)-2-(((1,3-dihydroxy-2-methylpropan-2-yl)amino)methyl)phenoxy)ethyl)-4-hydroxypiperidine-4-carboxylic acid] was 0.6 nM.
The value for `Cc1c(COc2cc(OCc3cncc(S(=O)(=O)NCCC(=O)O)c3)c(CN[C@@](C)(CO)C(=O)O)cc2Cl)cccc1-c1ccc2c(c1)OCCO2` [Example 1020, (S)-2-((2-((5-(N-(2-Carboxyethyl)sulfamoyl)pyridin-3-yl)methoxy)-5-chloro-4-((3-(2,3-dihydrobenzo[b]1[1,4]dioxin-6-yl)-2-methylbenzyl)oxy)benzyl)amino)-3-hydroxy-2-methylpropanoic acid] was 3.1 nM; that for `Cc1c(COc2cc(OC[C@@H](C)CO)c(CN[C@](C)(CO)C(=O)O)cc2Cl)cccc1-c1ccc2c(c1)OCCO2` [Example 1035, (R)-2-((5-chloro-4-((3-(2,3-dihydrobenzo[b][1,4]dioxin-6-yl)-2-methylbenzyl)oxy)-2-((S)-3-hydroxy-2-methylpropoxy)benzyl)amino)-3-hydroxy-2-methylpropanoic acid] was 3.4 nM; that for `Cc1c(COc2cc(OCCCCN3CC[C@@H](O)C3)c(CN3CCCC[C@H]3C(=O)O)cc2Cl)cccc1-c1ccc2c(c1)OCCO2` [Example 1025, (S)-1-(5-Chloro-4-((3-(2,3-dihydrobenzo[b][1,4]dioxin-6-yl)-2-methylbenzyl)oxy)-2-(4-((R)-3-hydroxypyrrolidin-1-yl)butoxy)benzyl)piperidine-2-carboxylic acid] was 15.6 nM.

The values are drawn from patent publication US20250230153A1, “2,3-DIHYDROBENZO[B][1,4]DIOXIN-6-YL CONTAINING COMPOUNDS USEFUL AS IMMUNOMODULATORS” (BRISTOL-MYERS SQUIBB COMPANY, priority 2021, published 2025).
